Target: T1, hGR(I747/T) (Homo sapiens, UniProt P04150, I747T)
T1 construct: The same shift was observed as with the complete GR (I747/T) mutant; expressed in transfected cells
T1 sequence (P04150 1-777 I747T): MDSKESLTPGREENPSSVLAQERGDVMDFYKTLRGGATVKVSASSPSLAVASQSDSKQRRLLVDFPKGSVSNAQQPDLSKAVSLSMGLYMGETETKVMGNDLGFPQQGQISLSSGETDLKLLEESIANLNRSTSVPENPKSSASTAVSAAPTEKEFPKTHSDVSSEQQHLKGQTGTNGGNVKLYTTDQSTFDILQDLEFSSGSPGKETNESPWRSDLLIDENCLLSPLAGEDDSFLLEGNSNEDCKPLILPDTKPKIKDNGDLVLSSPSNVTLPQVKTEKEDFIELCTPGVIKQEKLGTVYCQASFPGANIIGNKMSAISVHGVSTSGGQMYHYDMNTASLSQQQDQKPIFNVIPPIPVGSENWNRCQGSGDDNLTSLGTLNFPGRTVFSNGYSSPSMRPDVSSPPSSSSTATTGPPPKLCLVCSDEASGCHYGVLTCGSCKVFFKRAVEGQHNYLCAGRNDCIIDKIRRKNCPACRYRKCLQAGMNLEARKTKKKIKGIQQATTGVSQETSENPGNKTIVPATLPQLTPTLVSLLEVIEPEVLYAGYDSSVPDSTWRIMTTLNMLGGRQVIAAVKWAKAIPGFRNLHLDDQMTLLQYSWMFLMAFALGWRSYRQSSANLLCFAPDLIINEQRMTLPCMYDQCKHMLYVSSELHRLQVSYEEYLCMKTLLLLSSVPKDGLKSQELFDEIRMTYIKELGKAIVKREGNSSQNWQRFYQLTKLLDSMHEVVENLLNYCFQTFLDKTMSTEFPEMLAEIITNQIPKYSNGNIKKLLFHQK
Test: Transcriptional activation of pTAT-tk-Luc luciferase reporter in transiently transfected CV-1 cells
Type: cell-based
Conditions: CV-1 cells, pTAT-tk-Luc; for Luciferase activity % hGR (I747/T): 24 h ligand, mean of three independent assays; for EC50 hGR (I747/T): ligand concentration giving 50% of maximum transcriptional response
Protocol: The receptors were transiently expressed in GR-free CV-1 cells, conjointly with a luciferase reporter gene under the control of the tyrosine aminotransferase promoter (pTAT-tk-Luc).
After transfection, the cells were incubated for 24 hours with increasing concentrations of Dex, and they were then subjected to an assay of the β-galactosidase and luciferase activities, as described in “Materials and Methods”. The luciferase activity was normalized with the β-galactosidase activity, and the value obtained in the absence of ligand was subtracted for each point. The results were expressed as a percentage of the maximum luciferase activity obtained for each receptor. Each point is the mean±standard deviation of the mean of four separate determinations carried out in duplicate. […] The [^3H] steroid attached was measured after treatment with dextran-coated charcoal. The results presented are those for a single assay carried out in duplicate and representative of three separate assays.
Co-transfections were carried out and dose-response curves were constructed as described in FIG. 2. […] The assays of luciferase and β-galactosidase activity were carried out as described in “Materials and Methods”. The mean values of three independent assays are given in this table. nm=not measurable.
The CV-1 and Cos-7 cells were cultured in Dulbeco's modified Eagle's medium (DMEM) containing 10% (v/v) of fetal calf serum (FCS) (Gibco, Grand Island, N.Y.), in a humidified atmosphere containing 5% CO2. The HeLa cells were cultured under the same conditions. Transient transfections were carried out in 6-well multiplates according to the calcium phosphate procedure already described (42). A reference recombinant plasmid, pCMV-βgal, expressing bacterial β-galactosidase, was transfected conjointly with the receptor expression vector and the corresponding reporter gene so as to correct possible variations in he transfection efficiency. The precipitate was removed by washing after 24 hours, and the cells were kept in DMEX without FCS but containing hormone. After another 24 hours, the cells were rinsed and lysed for 15 minutes with 0.3 ml of lysis buffer [25 mM Tris.phosphate, pH 7.8, 8 mM […], 1% Triton X100, 10% glycerol (48)]. The corresponding luciferase activity as determined on an aliquot fraction (0.1 ml), by evaluation of the luminescence peak (for an integration time of 15 seconds), after injection of 0.1 ml of 1 mM luciferin in an LKB luminometer. The β-galactosidase was determined by the method modified by Bocquel et al. (49), for controlling the efficiency of each transfection.
The reporter gene pTAT-tk-Luc was provided by D. Gagne and was constructed as follows: an intermediate plasmid pTAT was first generated by insertion of the 966 bp EcoRI-BamHI segment obtained from pKT531 [offered freely by T. Grande (50)] into the corresponding sites of the vector pUC19 (Pharmacia). The fragment containing the sequence coding for the firefly luciferase and the thymidine kinase (tk) minimal promoter obtained from the Herpes simplex virus was isolated in the form of a BamHI fragment from pvit-tk-Luc (51) and inserted, downstream of the TAT promoter, into the corresponding site of pTAT. The reporter plasmid pGRE-tk-Luc was constructed by ligation of the fragment of HindIII-BglII digestion of pGRE-tk-CAT (52), which contains a synthetic GRE (AGAACAcagTGTTCT) upstream of the tk minimal promoter, into the HindIII-BglII sites of pLuc (53). The reporter gene p(17M)5-βGlob-Luc has been previously described (54). The reporter plasmid p(17M)5-tata-Luc was constructed from the plasmid p(17M)5-tata-CAT (55) by digestion with XhoI-BamHI and isolation of the fragment containing (17M5)-tata. This fragment was then inserted into the vector pGL2 (Promega) digested with the same restriction enzymes.

| SMILES | transactivation by the I747/T mutant receptor compared with wild-type receptor | Luciferase activity % hGR (I747/T) [%] | EC50 hGR (I747/T) |
| --- | --- | --- | --- |
| C[C@]12CCC(=O)C=C1CC[C@@H]1[C@@H]2[C@@H](O)C[C@]2(C=O)[C@@H](C(=O)CO)CC[C@@H]12 [Aldosterone, aldosterone] | suppressed | 0 | nM |
| C[C@]12C[C@H](O)[C@H]3[C@@H](CCC4=CC(=O)CC[C@@]43C)[C@@H]1CC[C@@H]2C(=O)CO [Corticosterone, corticosterone] | suppressed | 0 | nM |
| C[C@]12CCC(=O)C=C1CC[C@@H]1[C@@H]2[C@@H](O)C[C@@]2(C)[C@H]1CC[C@]2(O)C(=O)CO [Cortisol, cortisol] | greatly reduced | 15 | – |
| C[C@@H]1C[C@H]2[C@@H]3CCC4=CC(=O)C=C[C@]4(C)[C@@]3(F)[C@@H](O)C[C@]2(C)[C@@]1(O)C(=O)CO [Dexamethasone, dexamethasone] | – | 100 | – |

Reference: patent publication US6699686B1, “Modified nuclear glucocorticoid receptor, fusion protein, and DNA fragments coding for said receptor and said fusion protein” (Association pour le Development de la Recherche en …, priority 1996, dated 2004)
